pIC50: −log10 of the molar value.
Legend:
[1] = Half life in mouse liver microsomes at 0.8 uM by LC-MS/MS analysis; assay type: ADME, microsome
DCN1-like protein 1 = DCN1-like protein 1 (Homo sapiens, UniProt Q96GG9)
Description: Inhibition of biotin-labeled DCN1 (unknown origin) assessed as reduction in protein interaction with Ac-UBE2M12-AlexaFluor488 after 1 hr by TR-FRET assay

[2] = Intrinsic clearance in mouse liver microsomes at 0.8 uM by LC-MS/MS analysis; assay type: ADME, microsome; settings: read-out: CLH
Mus musculus [3] = test: Toxicity in mouse at 200 mg/kg, po qd for 14 days; assay type: organism-based; settings: in vivo, 336 h
Mus musculus [4] = test: AUClast in mouse at 50 to 200 mg/kg, po administered as single dose; assay type: ADME, organism-based; settings: in vivo
Mus musculus [5] = test: Volume of distribution in mouse at 0.5 to 1.5 mg/kg, iv administered as single dose; assay type: ADME, organism-based; settings: in vivo
Mus musculus [6] = test: Toxicity in mouse assessed as weight loss at 200 mg/kg, po qd for 3 days; assay type: organism-based; settings: in vivo, 72 h
Mus musculus [7] = test: Toxicity in mouse assessed as weight loss at 200 mg/kg, po qd for 5 to 14 days; assay type: organism-based; settings: in vivo
[8] = Clearance in mouse at 1 mg/kg, iv administered as single dose; assay type: ADME, organism-based; settings: in vivo
Mus musculus [9] = test: Toxicity in mouse at 0.5 to 1.5 mg/kg, iv administered as single dose up to 48 hrs; assay type: organism-based; settings: in vivo
[10] = Half life in mouse at 1 mg/kg, iv administered as single dose; assay type: ADME, organism-based; settings: in vivo
[11] = Plasma concentration in mouse at 200 mg/kg, po bid for 14 days measured after 1 hr; assay type: ADME, organism-based
Mus musculus [12] = test: Cmax in mouse at 50 to 200 mg/kg, po administered as single dose; assay type: ADME, organism-based; settings: in vivo
Mus musculus [13] = test: Oral bioavailability in mouse at 50 mg/kg administered as single dose; assay type: ADME, organism-based; settings: in vivo
[14] = Plasma concentration in mouse at 200 mg/kg, po administered as singe dose measured after 1 hr; assay type: ADME, organism-based
[15] = Clearance in mouse at 100 mg/kg, po administered as single dose; assay type: ADME, organism-based; settings: in vivo
Mus musculus [16] = test: Toxicity in mouse at 200 mg/kg, po bid for 14 days; assay type: organism-based; settings: in vivo, 336 h
[17] = Half life in mouse at 100 mg/kg, po administered as single dose; assay type: ADME, organism-based; settings: in vivo
[18] = Plasma concentration in mouse at 200 mg/kg, po qd for 14 days measured after 1 hr; assay type: ADME, organism-based
Mus musculus [19] = test: Toxicity in mouse at 50 to 200 mg/kg, po administered as single dose up to 48 hrs; assay type: organism-based; settings: in vivo
Liver [20] = test: Drug metabolism in mouse liver microsomes assessed as aromatic ring oxidation at 0.8 uM by LC-MS/MS analysis; assay type: ADME, microsome
Liver [21] = test: Drug metabolism in mouse liver microsomes assessed as 1-benzyl-1-(piperidin-4-yl)-3-(3-(trifluoromethyl)phenyl)urea formation at 0.8 uM by LC-MS/MS analysis; assay type: ADME, microsome
Plasma = test: Plasma concentration in mouse at 0.5 to 1.5 mg/kg, iv administered as single dose after 2 hrs; assay type: ADME, organism-based; settings: in vivo, BLD = below limit of detection
Mus musculus [22] = test: Clearance in mouse at 0.5 to 1.5 mg/kg, iv administered as single dose; assay type: ADME, organism-based; settings: in vivo
Mus musculus [23] = test: Half life in mouse at 0.5 to 1.5 mg/kg, iv administered as single dose; assay type: ADME, organism-based; settings: in vivo
Liver [24] = test: Drug level in mouse liver microsomes treated with 1-benzyl-1-(1-(cyclopropylmethyl)piperidin-4-yl)-3-(3-(trifluoromethyl)phenyl)urea at 0.8 uM by LC-MS/MS analysis; assay type: ADME, microsome

DCN1-like protein 1, sequence (Q96GG9 whole entry): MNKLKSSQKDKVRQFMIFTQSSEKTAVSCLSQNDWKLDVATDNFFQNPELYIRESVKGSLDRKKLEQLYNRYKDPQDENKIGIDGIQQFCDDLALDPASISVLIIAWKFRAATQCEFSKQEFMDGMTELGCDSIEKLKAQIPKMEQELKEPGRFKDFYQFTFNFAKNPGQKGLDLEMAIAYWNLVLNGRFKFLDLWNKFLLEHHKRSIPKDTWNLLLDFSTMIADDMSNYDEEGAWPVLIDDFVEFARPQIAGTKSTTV

half-life at 0.8 µM [1]	Structure (SMILES)	pIC50 (DCN1-like protein 1)	other results
84 min	CCCCN1CCC(N(Cc2ccccc2)C(=O)Nc2ccc(F)c(Cl)c2)CC1		
	O=C(Nc1cc(F)cc(C(F)(F)F)c1)N(Cc1ccccc1)C1CCN(Cc2ccc(Cc3ccccc3)cc2)CC1	< 4.66	
10.2 min	CCCN1CCC(N(Cc2ccccc2)C(=O)Nc2cccc(C(F)(F)F)c2)CC1		
	COc1ccccc1CN1CCC(N(Cc2ccccc2)C(=O)Nc2cc(F)cc(C(F)(F)F)c2)CC1	< 4.60	
	Cn1cncc1CN1CCC(N(Cc2ccccc2)C(=O)Nc2cc(F)cc(C(F)(F)F)c2)CC1	< 4.62	
	O=C(Nc1cc(F)cc(C(F)(F)F)c1)N(Cc1ccccc1)C1CCN(Cc2nc3ccccc3s2)CC1	< 4.60	
≤ 6 min	CCCC(C)N1CCC(N(Cc2ccccc2)C(=O)Nc2ccc3c(c2)OCO3)CC1 (stereo not given)		CLint scaled at 0.8 µM [2]: ≥ 500 mL/min/kg
	Cn1ccnc1CN1CCC(N(Cc2ccccc2)C(=O)Nc2cc(F)cc(C(F)(F)F)c2)CC1	< 4.55	
	COc1cccc(CN2CCC(N(Cc3ccccc3)C(=O)Nc3cc(F)cc(C(F)(F)F)c3)CC2)c1	< 4.55	
10.6 min	CCCC(C)N1CCC(N(Cc2ccccc2)C(=O)Nc2ccc(C(C)C)cc2)CC1 (stereo not given)		
	CCCC(C)N1CCC(N(Cc2ccccc2)C(=O)Nc2ccc3ncccc3c2)CC1 (stereo not given)	< 4.70	
	O=C(Nc1cc(F)cc(C(F)(F)F)c1)N(Cc1ccccc1)C1CCN(Cc2ccncc2)CC1	< 4.55	
	O=C(Nc1cc(F)cc(C(F)(F)F)c1)N(Cc1ccccc1)C1CCN(Cc2cccc(Oc3ccccc3)c2)CC1	< 4.62	
	CCCC(C)N1CCC(N(Cc2ccccc2)C(=O)Nc2ccc(C(C)(C)C)cc2)CC1 (stereo not given)	5.76	
11.3 min	CCCC(C)N1CCC(N(Cc2ccccc2)C(=O)Nc2ccc(F)c(F)c2)CC1 (stereo not given)		
< 6 min	CCCN1CCC(N(Cc2ccc3c(c2)OCO3)C(=O)Nc2cccc(C(F)(F)F)c2)CC1		
126 to 127 min	CCCCN1CCC(N(Cc2ccccc2)C(=O)Nc2ccc(Cl)c(Cl)c2)CC1		Activity (Mus musculus [3]): Non-Toxic; AUClast (Mus musculus [4]): 3.4 to 17.1 µM·h; Vd (Mus musculus [5]): 87.3 to 176 L/kg; Activity (Mus musculus [6]): 3 to 5%; Activity (Mus musculus [7]): Non-Toxic; clearance [8]: 283 mL/min/kg; Activity (Mus musculus [9]): Non-Toxic; half-life [10]: 216 min; CLint scaled at 0.8 µM [2]: 25 to 25.6 mL/min/kg; concentration at 1 h [11]: 3300 nM; Cmax (Mus musculus [12]): 1500 to 3000 nM; F (Mus musculus [13]): 88%; concentration at 1 h [14]: 3000 nM; CL/F [15]: 367 mL/min/kg; Activity (Mus musculus [16]): Non-Toxic; half-life [17]: 252 min; concentration at 1 h [18]: 2400 nM; Activity (Mus musculus [19]): Non-Toxic
14.7 min	CCCCN1CCC(N(Cc2ccc3c(c2)OCO3)C(=O)Nc2cccc(C(F)(F)F)c2)CC1		
≤ 6 min	CCCCN1CCC(N(Cc2ccccc2)C(=O)Nc2cccc(C(F)(F)F)c2F)CC1		
35.5 min	O=C(Nc1cccc(C(F)(F)F)c1)NC1CCN(Cc2ccccc2)CC1		

half-life at 0.8 µM [1]	Structure (SMILES)	pIC50 (DCN1-like protein 1)	other results
11.8 min	CCCC(C)N1CCC(N(Cc2ccccc2)C(=O)Nc2cc(F)cc(C(F)(F)F)c2)CC1 (stereo not given)		
9 min	CCCCN1CCC(N(Cc2ccccc2)C(=O)Nc2cccc(C(F)(F)F)c2)CC1		
22.7 min	CCCC(C)N1CCC(N(Cc2ccccc2)C(=O)Nc2ccc(Cl)c([N+](=O)[O-])c2)CC1 (stereo not given)		
	Cc1ccc(CN2CCC(N(Cc3ccccc3)C(=O)Nc3cc(F)cc(C(F)(F)F)c3)CC2)o1	< 4.62	
14.3 min	CCCC(C)N1CCC(N(Cc2ccccc2)C(=O)Nc2ccc3ncsc3c2)CC1 (stereo not given)		
≤ 6 min	CCCC(C)N1CCC(N(Cc2ccccc2)C(=O)Nc2ccc3c(c2)CCC3)CC1 (stereo not given)		
≤ 6 min	CCCCN1CCC(N(Cc2ccccc2)C(=O)Nc2cccc(Cl)c2)CC1		
9 min	CCCC(C)N1CCC(N(Cc2ccccc2)C(=O)Nc2ccc(C)c(F)c2)CC1 (stereo not given)		
7.44 min	CC(C)(C)N1CCC(N(Cc2ccc3c(c2)OCO3)C(=O)Nc2cccc(C(F)(F)F)c2)CC1		
≤ 6 min	CCCC(C)N1CCC(N(Cc2ccccc2)C(=O)Nc2cc(F)cc(Cl)c2)CC1 (stereo not given)		CLint scaled at 0.8 µM [2]: ≥ 500 mL/min/kg
< 6 min	O=C(Nc1cccc(C(F)(F)F)c1)N(Cc1ccccc1)C1CCN(CC2CC2)CC1		Drug metabolism (Liver [20]): Metabolite_Detected; Drug metabolism (Liver [21]): Metabolite_Detected
8.22 min	CCCN1CCC(N(Cc2ccco2)C(=O)Nc2cccc(C(F)(F)F)c2)CC1		
≤ 6 min	CCCCN1CCC(N(Cc2ccccc2)C(=O)Nc2cccc(F)c2)CC1		CLint scaled at 0.8 µM [2]: ≥ 500 mL/min/kg
19.6 to 19.8 min	CCCC(C)N1CCC(N(Cc2ccccc2)C(=O)Nc2cccc(C(F)(F)F)c2)CC1 (stereo not given)		Vd (Mus musculus [5]): 87.3 to 176 L/kg; Activity (Mus musculus [9]): Non-Toxic; Cp (Plasma): Bld; CLint scaled at 0.8 µM [2]: 165 to 170 mL/min/kg; CL (Mus musculus [22]): 700 mL/min/kg; t1/2 (Mus musculus [23]): 8.4 min
16.3 min	CCCN1CCC(N(Cc2cc(F)cc(C(F)(F)F)c2)C(=O)Nc2cccc(C(F)(F)F)c2)CC1		
	Cn1ccc2cc(CN3CCC(N(Cc4ccccc4)C(=O)Nc4cc(F)cc(C(F)(F)F)c4)CC3)ccc21	< 4.68	
≤ 6 min	CCCCN1CCC(N(Cc2ccccc2)C(=O)Nc2cc(F)cc(F)c2)CC1		CLint scaled at 0.8 µM [2]: ≥ 500 mL/min/kg
146 min	CCCCN1CCC(N(Cc2ccccc2)C(=O)Nc2cc(F)cc(C(F)(F)F)c2)CC1		
	O=C(Nc1cccc(C(F)(F)F)c1)N(Cc1ccccc1)C1CCNCC1		Drug metabolism (Liver [24]): Metabolite_Detected

Structure (SMILES)	half-life at 0.8 µM [1]	pIC50 (DCN1-like protein 1)	other results
CCCCN1CCC(N(Cc2ccccc2)C(=O)Nc2cccc(C#N)c2)CC1	9.3 min	5.37	
CCCC(C)N1CCC(N(Cc2ccccc2)C(=O)Nc2cccc(Cl)c2)CC1 (stereo not given)	≤ 6 min	6.52	
CCCC(C)N1CCC(N(Cc2ccccc2)C(=O)Nc2ccc(I)cc2)CC1 (stereo not given)	29.9 min	7.27	
CCCC(C)N1CCC(N(Cc2ccccc2)C(=O)Nc2ccc(C(F)(F)F)cc2)CC1 (stereo not given)	27.3 min	6.50	
CCCC(C)N1CCC(N(Cc2ccccc2)C(=O)Nc2ccc(C(F)(F)F)nc2C)CC1 (stereo not given)	> 240 min	4.88	
CCCC(C)N1CCC(N(Cc2ccccc2)C(=O)Nc2ccc3ccccc3c2)CC1 (stereo not given)	≤ 6 min	7.74	CLint scaled at 0.8 µM [2]: ≥ 500 mL/min/kg
CCCC(C)N1CCC(N(Cc2ccccc2)C(=O)Nc2cc(C(F)(F)F)ccc2F)CC1 (stereo not given)	48.5 min	5.13	
CCCC(C)N1CCC(N(Cc2ccccc2)C(=O)Nc2ccc(Br)cc2)CC1 (stereo not given)	23.2 min	7.17	
CCCC(C)N1CCC(N(Cc2ccccc2)C(=O)Nc2ccc(F)c(C(F)(F)F)c2)CC1 (stereo not given)	23.6 min	6.54	
CCCC(C)N1CCC(N(Cc2ccccc2)C(=O)Nc2cc(Cl)ccc2F)CC1 (stereo not given)	14.9 min	< 4.47	
CCCC(C)N1CCC(N(Cc2ccccc2)C(=O)Nc2ccc(C)cc2)CC1 (stereo not given)	9.6 min	6.45	
CCCCN1CCC(N(Cc2ccccc2)C(=O)Nc2cccc(C)c2)CC1	10.7 min	5.89	
CCCC(C)N1CCC(N(Cc2ccccc2)C(=O)Nc2ccc(C#N)c(C(F)(F)F)c2)CC1 (stereo not given)	55.9 min		
CCCCN1CCC(N(Cc2ccccc2)C(=O)Nc2ccc(C)c(Cl)c2)CC1	17.2 min	6.49	
CCCC(C)N1CCC(N(Cc2ccccc2)C(=O)Nc2ccc(Cl)cc2)CC1 (stereo not given)	22.1 min	6.95	
CCCCN1CCC(N(Cc2ccccc2)C(=O)Nc2ccc(F)c(C(F)(F)F)c2)CC1	116 min	6.21	
CCCC(C)N1CCC(N(Cc2ccccc2)C(=O)Nc2cccc(F)c2)CC1 (stereo not given)	≤ 6 min	5.77	
CCCC(C)N1CCC(N(Cc2ccccc2)C(=O)Nc2cccc(C(C)C)c2)CC1 (stereo not given)	13.4 min	6.45	
